Measured values reported in US20120004289A1, “ANNEXIN A11 AND ASSOCIATED GENES AS BIOMARKERS FOR CANCER” (The Johns Hopkins University, priority 2009, published 2012).

Key:
Format in all cases: cell-based, human
[1] = system: 2008 cells; assay: Cell cytotoxicity assay of cisplatin (CCK-8) in siRNA- or control-transfected 2008 cells; conditions: 72 hours
Procedure: (A and B) Cell proliferation assay. 2008 (A) or HEY (B) cells were treated with RNAi (A1) or -Ctr at the concentration of 40 nM for 3 days, respectively, and then plated at 3000 viable cells per well into 96-well plates. Every 24 hours, one plate was subjected to assay by CCK-8 kit. The data in each time point are averaged values from eight replicates (P<0.05). (C) Colony formation assay. 2008 cells were treated in the same way as above for 3 days and then plated at 3000 viable cells per well into six-well plates. Six days after plating, cells were fixed with methanol and stained with 0.1% crystal violet and colonies were counted. The experiment was performed in six replicates (P<0.01). (D) Cell cytotoxicity assay. 2008 cells were treated in same way as above for 3 days and then plated at 3000 viable cells per well into 96-well plates. After incubating overnight, cells were treated with various concentration of cisplatin diluted in 100 μl of conditioned medium (the final concentrations of cisplatin were 0, 1.56, 3.13, 6.25, 12.5, 25, 50, and 100 μg/ml). After continuous incubation for 72 hours, the plates were subjected to assay by CCK-8 kit. The experiment was performed in three replicates (P<0.01). Three independent experiments were performed for each assay. […] Cells were then collected, counted, and plated at 3000 viable cells per well into 96-well plates in a final volume of 100 μl. […]

[2] = system: 2008 cells; assay: Time course of gene expression response to cisplatin, Agilent 44K whole genome oligo microarray; conditions: 10 μM cisplatin
Procedure: 2008 cells were cultured in T150 flasks and transfected with A1 or negative control for 2 days. Cells were then collected, counted, and placed into 100-mm dishes. After incubating overnight, transfected cells were at 50% confluence and treated with 10 μM cisplatin (Sigma-Aldrich, St. Louis, Mo.) for 0, 8, 16, and 24 hours and then harvested in two portions for both total RNA and total protein extractions at every single time point. The optimized dose and duration of cisplatin treatment were experimentally determined in a previous study. Total RNA was isolated using TRIZOL reagent (Invitrogen) followed by RNeasy mini kit with DNase on-column digestion (Qiagen, Valencia, Calif.). RNA was quantified with NanoDrop ND-1000 followed by quality assessment with the 2100 Bioanalyzer (Agilent Technologies, Santa Clara, Calif.) according to manufacturer's protocol. Total RNA was labeled using Agilent Low RNA Input Fluorescent Linear Amplification Kit (Agilent) following the manufacturer's instruction with minor modifications. Briefly, 0.4 μg of RNA was reverse transcribed into cDNA by MMLV-RT using an oligo dT primer (System Biosciences, Mountain View, Calif.) that incorporated a T7 promoter sequence. The cDNA was then used as a template for in vitro transcription in the presence of T7 RNA polymerase and cyanine-3-labeled CTPs (Perkin Elmer Life Sciences, Boston, Mass.). RNA spike-in controls (Agilent) were added to RNA samples before amplification and labeling. The labeled cRNA was purified using the RNeasy mini kit (Qiagen). A total of 0.825 μg of each Cy3-labeled sample was used for hybridization on Agilent 4×44K whole human genome microarray at 65° C. for 17 hours in a hybridization oven with rotation. After hybridization, slides were washed and dried using stabilization and drying solution according to the Agilent microarray processing protocol. Slides were scanned using the Agilent Microarray Scanner controlled by Agilent Scan Control 7.0 software. Microarray data were extracted with Agilent Feature Extraction 9.5.3.1 software and imported into GeneSpring GX 10 (Agilent). […]

[3] = system: 2008 cells; assay: Real-time PCR validation of gene expression response to cisplatin; conditions: both groups of cells
Procedure: 2008 cells were cultured in T150 flasks and transfected with A1 or negative control for 2 days. Cells were then collected, counted, and placed into 100-mm dishes. After incubating overnight, transfected cells were at 50% confluence and treated with 10 μM cisplatin (Sigma-Aldrich, St. Louis, Mo.) for 0, 8, 16, and 24 hours and then harvested in two portions for both total RNA and total protein extractions at every single time point. The optimized dose and duration of cisplatin treatment were experimentally determined in a previous study. Total RNA was isolated using TRIZOL reagent (Invitrogen) followed by RNeasy mini kit with DNase on-column digestion (Qiagen, Valencia, Calif.). RNA was quantified with NanoDrop ND-1000 followed by quality assessment with the 2100 Bioanalyzer (Agilent Technologies, Santa Clara, Calif.) according to manufacturer's protocol. […]. One microgram of total RNA was used to generate cDNA using the iScript cDNA Synthesis Kit (Bio-Rad, Hercules, Calif.). […] An experiment consisted of triplicate amplification reactions for each gene product being analyzed. […] The cycle threshold number (CT) was determined for each PCR using iQ5 Real-time PCR Detection System (Bio-Rad). […] Results are expressed as relative abundance of a specific mRNA between control and experimental sample (fold change, mean±SD).

N.N.[Cl][Pt][Cl] [cisplatin]
fold increase of IC50 in RNAi cells compared with control cells [1]: 2.6 fold
number of genes upregulated or downregulated more than two-fold vs 0 hour in both groups of cells ([2]; 8 hours): 6 genes
number of genes upregulated or downregulated more than two-fold vs 0 hour in both groups of cells ([2]; 16 hours): 19 genes
number of genes upregulated or downregulated more than two-fold vs 0 hour in both groups of cells ([2]; 24 hours): 47 genes
PCSK9 gene expression (real-time PCR) ([3]; 10 μM cisplatin, 8, 16 and 24 hours): decreased at 8 hours but increased at 16 and 24 hours
DHRS2 gene expression (real-time PCR) ([3]; 10 μM cisplatin, 16 and 24 hours): down-regulation
